Measured values from patent publication US7005539B2, “Ferulic acid dimers and their pharmaceutically acceptable salts, their preparation and use thereof for treating dementia” (Korea Institute of Science and Technology, priority 2001, dated 2006).

How the values were obtained:
[1] = system: mice administered with beta-amyloid; experiment: passive avoidance test in mice given beta-amyloid into the cerebral ventricle; type: in vivo, mouse; conditions: group C (dimer and beta-amyloid) compared with group B (beta-amyloid (1–42) only); 24 h after training; maximum 300 seconds; FIG. 1
Protocol: Four groups of 10 mice aged 4–5 weeks, weighing 20–25 g, were administered with samples dissolved in 1% DMSO and 1% CMC using Sonde once per 1 day(samples: A-reverse phase betaamyloid, B-betaamyloid, C-ferulic acid dimer of example 1 and betaamyloid, D-ferulic acid and betaamyloid). After injection of […] sample to the celebral ventricle on each of 3 consecutive days, passive avoidance test on days 1 and 2, and Y-maze test on days 3 and 4 following the last injection were conducted. All data attained by the average mean of 10 mice each group.
Injection into the cerebral ventricle was performed according to the method described in Laursen & Belknap, J. Pharmacol. Methods. 1986, 16, 355. […]
In order to examine the learning and memory-retention ability of a mouse, a passive avoidance test was carried out in accordance with the method described in Song et al., J. Neurochem., 1998, 71, 875. […] Twenty-four hours after the training, the mouse was put in the light room again and the time it took to enter the dark room was measured as a passive avoidance time. The maximum restriction time was set at 300 seconds, i. e., in cases where the mouse took more than 300 seconds to enter the dark room, the passive avoidance time was determined to be 300 seconds.

Sprague-Dawley rats = experiment: single-dose oral toxicity test in rats; type: in vivo, rat; conditions: for LD50: oral, one time, in corn oil, observed 7 days
Protocol: Twenty female and twenty male Sprague-Dawley rats aged 4 weeks were divided into four groups including 5 female and 5 male rats, after being raised in a vivarium of temperature 22±3° C., relative humidity 50±10%, illumination 150–300 Lux for 1 week.
The ferulic acid dimers prepared in Example 1 was dissolved in corn oil, and the rats of 4 groups were orally administered with the solutions at a dose of 300, 1,000, 3,000 and 10,000 mg/kg one time. For 7 days after administration, changes of general symptoms and occurrence of death were observed. In addition, the rats were killed on day 7 after administration, dissected, and internal organs were examined with unaided eye. From the extract administration day, daily weight changes were measured and thus the weight decrease of animals attributed to ferulic acid dimers was observed.

mouse = conditions: separated ferulic acid monomer administered to mouse; cited from earlier work
plasophylin = experiment: T7 phage display selection of human brain cDNA library proteins on immobilized ferulic acid (chemical genomics); type: binding; conditions: screening repeated 3–4 times; identified by sequencing and BLAST
From the text: (§1) In order to study a functional mechanism of ferulic acid dimers, the present inventors conducted an experiment to screen from protein libraries proteins conjugatable with ferulic acid by use the method of chemical genomics. To this end, ferulic acid was immobilized onto a solid substrate and treated with T7 phages having proteins translated from a human brain and cDNA library on their surface to select the proteins bound to the immobilized ferulic acid. For selection of the proteins with the best affinity for ferulic acid, the screening procedure was repeated 3–4 times. Base sequencing of the cDNA selected allowed the amino acid sequences of the corresponding proteins to be inferred. […] Of the proteins thus identified, cynuclein and plasophylin attracted particular attention. These two proteins, known to be directly or indirectly associated with formation of intercelluar or intracelluar plaque, were therefore found to be inhibited from forming plaques by ferulic acid.

cynuclein = experiment: as above; type: binding; conditions: screening repeated 3–4 times; identified by sequencing and BLAST
From the text: as §1

Structure (SMILES) | step-through latency [1] | LD50 (Sprague-Dawley rats; females) | body weight (Sprague-Dawley rats; groups administered with 1,000 mg/kg or less) | LD50 (Sprague-Dawley rats; males) | pathological changes seen with naked eye on dissection (Sprague-Dawley rats; surviving animals, groups administered 1,000 mg/kg or less, day 7) | memory-retention ability of mouse (mouse) | protein selected as bound to immobilized ferulic acid (plasophylin) | protein selected as bound to immobilized ferulic acid (cynuclein)
O=C(O)C=Cc1ccc(O)c(OCCOc2cc(C=CC(=O)O)ccc2O)c1 [Example 1, 1,2-[2-hydroxy-5-(2-carboxyvinyl)]phenoxyethane] | significantly higher | 2,804 mg/kg | not decreased | 3,722 mg/kg | No pathological changes |  |  | 
COc1cc(/C=C/C(=O)O)ccc1O [ferulic acid, 4-hydroxy-3-methoxy cinnamic acid] |  |  |  |  |  | considerably increased | specifically bound | specifically bound
